Article PMC10380377 (International Journal of Molecular Sciences, 2023)
Positions of bridges follow the written chain, without caps; N, C: chain ends. Residues, ends and D or L forms follow the SMILES beside them.

Assays:
human Kv1.6 = biological target: T1, human Kv1.6 (Homo sapiens, UniProt P17658); assay: cell-based; format: cell-based
T1 construct: expressed in transfected cells; host or cells: Xenopus laevis oocytes injected with cRNA (pSGEM clone, T7 transcription)

human Kv10.1 = biological target: T2, human Kv10.1 (Homo sapiens, UniProt O95259); assay: cell-based
T2 construct: expressed in transfected cells; host or cells: Xenopus laevis oocytes injected with cRNA (pSGEM clone, T7 transcription)
T2 sequence (O95259 1-989): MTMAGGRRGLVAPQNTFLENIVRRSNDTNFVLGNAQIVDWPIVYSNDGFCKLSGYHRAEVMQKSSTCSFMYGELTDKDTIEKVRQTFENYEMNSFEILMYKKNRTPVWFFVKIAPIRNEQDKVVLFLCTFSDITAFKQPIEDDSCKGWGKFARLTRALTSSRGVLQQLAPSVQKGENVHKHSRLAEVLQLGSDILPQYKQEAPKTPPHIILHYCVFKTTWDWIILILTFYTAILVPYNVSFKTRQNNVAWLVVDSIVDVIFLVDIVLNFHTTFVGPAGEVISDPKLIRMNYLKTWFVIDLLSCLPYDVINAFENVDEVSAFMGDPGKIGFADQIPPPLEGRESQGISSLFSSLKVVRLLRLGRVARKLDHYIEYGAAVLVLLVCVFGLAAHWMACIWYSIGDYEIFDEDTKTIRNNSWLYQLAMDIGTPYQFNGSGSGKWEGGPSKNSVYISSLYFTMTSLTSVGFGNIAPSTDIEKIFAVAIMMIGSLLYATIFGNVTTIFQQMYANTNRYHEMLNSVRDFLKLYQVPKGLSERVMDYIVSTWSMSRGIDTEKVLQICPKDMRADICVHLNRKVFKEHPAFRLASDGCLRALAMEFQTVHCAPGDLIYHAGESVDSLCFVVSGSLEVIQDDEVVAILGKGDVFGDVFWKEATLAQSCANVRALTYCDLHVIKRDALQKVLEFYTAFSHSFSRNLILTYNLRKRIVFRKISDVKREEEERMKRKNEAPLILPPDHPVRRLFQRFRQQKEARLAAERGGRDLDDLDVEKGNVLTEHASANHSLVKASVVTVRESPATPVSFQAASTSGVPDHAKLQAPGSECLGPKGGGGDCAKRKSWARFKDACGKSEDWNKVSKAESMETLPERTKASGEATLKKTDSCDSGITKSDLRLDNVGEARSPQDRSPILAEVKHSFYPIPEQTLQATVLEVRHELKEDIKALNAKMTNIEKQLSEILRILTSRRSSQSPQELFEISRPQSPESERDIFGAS

human Kv11.1 [1] = biological target: T3, human Kv11.1 (Homo sapiens, UniProt Q12809); assay: in vitro; conditions: pH 7.2
Kv10.1 potassium channel = format: cell-based, human
human Kv11.1 [2] = biological target: T3, human Kv11.1

T1 sequence (P17658 whole entry): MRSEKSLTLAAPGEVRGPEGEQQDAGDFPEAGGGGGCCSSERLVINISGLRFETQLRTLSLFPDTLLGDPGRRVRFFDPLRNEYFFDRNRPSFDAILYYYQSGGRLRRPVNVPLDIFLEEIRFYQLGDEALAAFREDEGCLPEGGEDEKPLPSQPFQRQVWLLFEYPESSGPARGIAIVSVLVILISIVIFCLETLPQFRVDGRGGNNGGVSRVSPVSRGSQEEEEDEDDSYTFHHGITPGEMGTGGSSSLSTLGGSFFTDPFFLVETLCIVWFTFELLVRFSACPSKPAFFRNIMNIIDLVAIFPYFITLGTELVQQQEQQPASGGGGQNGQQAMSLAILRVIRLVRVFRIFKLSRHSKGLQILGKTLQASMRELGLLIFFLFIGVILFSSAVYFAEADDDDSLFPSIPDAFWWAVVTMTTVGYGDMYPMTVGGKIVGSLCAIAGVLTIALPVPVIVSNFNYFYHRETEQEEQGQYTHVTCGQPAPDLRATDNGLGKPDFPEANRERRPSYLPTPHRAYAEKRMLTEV
T3 sequence (Q12809 whole entry): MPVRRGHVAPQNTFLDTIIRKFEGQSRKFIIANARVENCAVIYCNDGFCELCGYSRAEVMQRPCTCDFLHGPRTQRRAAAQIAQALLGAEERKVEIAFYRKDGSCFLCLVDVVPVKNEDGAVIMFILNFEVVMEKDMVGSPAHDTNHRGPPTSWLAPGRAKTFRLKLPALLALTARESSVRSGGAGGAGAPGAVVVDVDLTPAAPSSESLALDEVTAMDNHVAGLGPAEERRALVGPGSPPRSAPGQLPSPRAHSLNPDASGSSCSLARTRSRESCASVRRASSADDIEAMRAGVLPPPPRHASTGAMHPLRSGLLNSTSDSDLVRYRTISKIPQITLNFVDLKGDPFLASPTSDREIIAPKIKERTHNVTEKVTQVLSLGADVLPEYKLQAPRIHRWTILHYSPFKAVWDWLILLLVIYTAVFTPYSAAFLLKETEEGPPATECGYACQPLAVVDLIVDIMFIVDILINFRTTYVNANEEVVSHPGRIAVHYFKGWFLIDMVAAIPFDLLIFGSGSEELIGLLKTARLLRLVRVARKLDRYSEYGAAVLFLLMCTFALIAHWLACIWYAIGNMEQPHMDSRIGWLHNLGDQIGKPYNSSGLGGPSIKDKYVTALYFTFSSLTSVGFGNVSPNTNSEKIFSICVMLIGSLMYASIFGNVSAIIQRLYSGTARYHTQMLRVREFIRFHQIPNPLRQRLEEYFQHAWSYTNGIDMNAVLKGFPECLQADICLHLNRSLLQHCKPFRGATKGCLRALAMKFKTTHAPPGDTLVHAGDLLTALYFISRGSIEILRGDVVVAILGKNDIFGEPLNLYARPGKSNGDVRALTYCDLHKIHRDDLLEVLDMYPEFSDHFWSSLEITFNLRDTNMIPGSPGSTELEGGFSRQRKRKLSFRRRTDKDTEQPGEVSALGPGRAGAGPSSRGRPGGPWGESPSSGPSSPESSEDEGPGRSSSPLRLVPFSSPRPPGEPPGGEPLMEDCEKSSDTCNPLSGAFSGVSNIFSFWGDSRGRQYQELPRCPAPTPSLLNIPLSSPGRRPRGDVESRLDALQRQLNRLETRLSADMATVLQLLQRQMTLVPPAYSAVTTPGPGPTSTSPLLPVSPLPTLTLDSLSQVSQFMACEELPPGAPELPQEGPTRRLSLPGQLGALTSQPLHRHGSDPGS

CC[C@H](C)[C@H](NC(=O)[C@@H]1CSSC[C@@H]2NC(=O)[C@H](C(C)C)NC(=O)[C@H](CC(C)C)NC(=O)CNC(=O)[C@H](CC(C)C)NC(=O)CNC(=O)[C@@H]3CCCN3C(=O)[C@H](CC(C)C)NC(=O)CNC(=O)[C@@H]3CSSC[C@H](NC(=O)[C@H](C)NC(=O)CNC(=O)[C@H](CCCNC(=N)N)NC(=O)[C@H](CSSC[C@H](NC(=O)CN)C(=O)NCC(=O)N[C@@H](C(C)C)C(=O)N[C@@H](CC(=O)O)C(=O)NCC(=O)N[C@@H](CCC(N)=O)C(=O)N[C@@H](Cc4ccccc4)C(=O)N3)NC2=O)C(=O)N[C@@H](Cc2ccccc2)C(=O)N[C@@H](CC(C)C)C(=O)N[C@@H](C(C)C)C(=O)N1)C(=O)N[C@@H](Cc1ccc(O)cc1)C(=O)N[C@H](C(=O)N1CCC[C@H]1C(=O)O)[C@@H](C)CC [κO-SrVIA] (H-GCGVDGQFCGLPGLGLVCCRGACFLVCIYIP-OH; disulfide 2-19, 9-23, 18-27)
Hill coefficient (human Kv1.6): 3.35 ± 0.44 | effect on Kv1.6 (human Kv1.6): no effect | inhibition at 4 µM (human Kv1.6): < 50% | Hill coefficient (human Kv10.1): 1.86 ± 0.25 | inhibition at 0.4 µM (human Kv10.1; read-out: inhibitory activity): 10% | inhibition at 0.4 µM (human Kv11.1 [1]): 10% | inhibitory activity on the Kv10.1 channel (Kv10.1 potassium channel): the only fraction that had inhibitory activity on the Kv10.1 channel | Hill coefficient (human Kv11.1 [2]): 2.85 ± 0.46
